Entries after “also recorded” stand apart in the source; their conditions may differ.
Key:
[1] = tested on: cellular suspension of Nicotiana tabacum cv. Bright Yellow; test: Alkalinisation test of the extracellular medium on cellular suspension; type: cell-based; details: after 10 minutes; 160 μl of 10 g/l composition added to 8 ml suspension, final concentration about 200 mg/l
Procedure: The cellular suspensions here above mentioned are suspensions obtained starting from the vegetal tissue of Nicotiana tabacum cv. Bright Yellow.
One of these experiences is consisting of the so-called alkalinisation test of the extracellular medium and the other of the so-called test of the refractory state.
In the case of the first test, the latter is carried out on a cellular suspension obtained starting from vegetable tissues of the variety Bright Yellow. To three 8 ml samples of that cellular suspension were added respectively 160 μl of three aqueous compositions respectively containing 10 g/l of the fractions H11-C1, I25 (oligofucanes) and H11-S, the final concentration in each of the oligosaccharides being equal to […].

[2] = tested on: signalisation pathways of salicic acid and of ethylene; test: Complementary experiences on signalisation pathways; type: in vivo
[3] = tested on: agronomically useful plants; test: Stimulation of natural defence reactions of plants by liquid compositions (general statements); type: in vivo; details: in practice
[4] = tested on: salicylic acid; test: Accumulation of total salicylic acid in infiltrated tissues; type: in vivo, Nicotiana tabacum; details: variety Bel3, tissues sampled 3 days after infiltration (FIG. 5)
Excerpt: (§1) The stimulation, after infiltration with the here above defined compositions H11-C and H11-S of the accumulation of salicylic acid and of scopoletin in the varieties NN and Bel3 was then examined.
(§2) The results of these experiences appear on FIGS. 5 and 6, which respectively show the accumulation—expressed in μg respectively of salicylic acid and of scopoletin per gram of infiltrated tissues—of the total salicylic acid (free and conjugated forms) and of the total scopoletin (free and conjugated forms) determined on tissues on the varieties NN and Bel3 infiltrated as indicated here above on the one hand with water (C) as a control and on the other hand with compositions based on the fractions H11-C1 and H11-S containing respectively 200 mg/l of these fractions, the infiltrated tissues being sampled 3 days after the infiltration treatment.

[5] = tested on: scopoletin; test: Accumulation of total scopoletin in infiltrated tissues; type: in vivo, Nicotiana tabacum; details: variety Bel3, tissues sampled 3 days after infiltration (FIG. 6)
Excerpt: as §1, §2

[6] = tested on: PR proteins (families PR1, PR2, PR3 and PR5, acidic and alkaline isoforms); test: Expression of PR proteins in infiltrated tobacco leaves by immunodetection; type: in vivo, Nicotiana tabacum
Procedure: Concerning the PR proteins, the expression of the acidic and of the alkaline isoforms of 4 families of these proteins, i.e. the families PR1, PR2, PR3 and PR5 has been analysed in the case of tobacco plants of the varieties NN and Bel3 infiltrated with compositions based on the fractions H11-C1 and H11-S at a concentration of 200 mg/l.
The analysis of these proteins has been carried out by immunodetection as disclosed in the publication in the name of Costet L., Dorey S., Fritig B. and Kauffmann S., published under the title: • “A pharmacological approach to test the diffusible signal activity of reactive oxygen intermediates in elicitor-treated tobacco leaves”, in Plant Cell and Physiology (2002) 43; 91-98.
The intensity of the induction appears on the tracks 1 to 8 by way of spots more or less pronounced.
The samples of infiltrated tissues on which the treatments illustrated by track 9 of FIG. 3 were made, were carried out 3 days after the infiltration treatment.
(§3) In another line of tests or experiences, the varieties NN and Bel3 have been treated with inducing compositions presenting respectively the concentrations of 0.5 and then of 5, of 20, of 50, of 200 and of 1,000 mg/l in H11-S and H11-C2 and the expression of the PR1 and PR2 acidic proteins in the case of the said varieties NN and Bel3 have been analysed.
That expression of the acidic PR1 and PR2 proteins is materialised by the intensity of the spots, which appear on the tracks 10, 11, 12, 13, and which are the result of the determination by immunodetection.

[7] = tested on: tobacco plants of the varieties NN and Bel3; test: Symptoms of leaf tissues after infiltration into the mesophyl (depigmentation/chlorosis, fluorescence under UV light); type: in vivo, Nicotiana tabacum
Procedure: The treatment has been applied on the one hand to the whole plants and on the other hand to cellular suspensions, the varieties of the plants used being: • the variety Nicotiana tabacum cv. Samsun NN designated by NN • the variety Nicotiana tabacum cv. Bel3 designated by Bel3
First, the plants of the varieties NN and Bel 3 as such were treated using aqueous compositions comprising respectively the fractions H11-C1 and H11-S at the concentration of 200 mg/l, which is, as indicated hereabove, the optimum dosis for the elicitor activity of unsulfated glucans.
The treatment consists in the infiltration of the above said aqueous compositions based on the fractions H11-C1 and H11-S into the mesophyl of the leaves of the treated plants.
The infiltration is carried out by piercing tobacco leaves using a needle and by applying then perpendicularly with respect to the plane of the leave a syringe containing the solution to be injected. Immediately after the injection, the infiltration zone, visible by illumination of the leave from its lower face, is delimitated using a felt type pen. The infiltrated zone is designated by ZI.
as §3

[8] = tested on: OMT activity (orthodiphenol-O-methyltransferases); test: OMT activity in infiltrated tobacco leaves; type: in vivo, Nicotiana tabacum; details: for stimulation of the OMT activity: 200 mg/l; for OMT activity relative to that obtained with H11-C2: 500 mg/l
Excerpt: Measurement was also made of the OMT activity induced by the compositions based on the fractions H11-C1 and H11-S.
For the measurement of that activity, procedure was as disclosed by Costet L., Dorey S., Fritig B. and Kauffmann S in the publication here above identified and published under the title: • “A pharmacological approach to test the diffusible signal activity of reactive oxygen intermediates in […] tobacco leaves”, in Plant Cell and Physiology (2002) 43; 91-98.
The latter show the stimulation of the OMT activity, expressed in pkat/g FP (i.e. in picokatal per gram of fresh product FP, in other words of fresh vegetable material), by infiltration with water as control (reference C), then with the compositions based on H11-C1 and H11-S, the plants treated being again the varieties NN and Bel3.
The OMT activity has also been measured after infiltration of the varieties NN and Bel3 with the same compositions.
In another line of tests, the varieties NN and Bel3 have been treated with the same inducing compositions presenting respectively the concentrations of 0.5 and then of 5, of 50, of 200 and of 500 mg/l in H11-S and H11-C and the OMT activity in the case of the varieties NN and Bel3 has been analysed.
FIGS. 8 and 9 show the values of stimulation of the OMT activity (expressed in pkat/g FP) respectively in the case of the varieties NN and Bel3.

laminarin sulfate [H11-S]
alkalinisation of the medium [1]: 0.3 pH units | induction of signalisation pathways [2]: induce the signalisation pathways of salicic acid and of ethylene | concentration above which no better result is provided [3]: higher than 500 mg/l | ratio of the concentrations (H11-C1 at 200 mg/l versus H11-S) giving the same accumulation of salicylic acid [4]: ≤ 30 | ratio of the concentrations (H11-C1 at 200 mg/l versus H11-S) giving the same accumulation of scopoletin [5]: ≤ 30 | expression of acidic and alkaline isoforms of PR1, PR2, PR3 and PR5 proteins ([6]; 200 mg/l, varieties NN and Bel3, H11-S compared with H11-C1 (FIG. 1)): more important; also recorded: stronger | expression of the acidic PR1 protein ([6]; 200 mg/l, varieties NN and Bel3, tissues sampled 3 days after infiltration (FIG. 3)): highest expression | concentration from which acidic PR1 and PR2 proteins are detected ([6]; immunodetection, concentration series 0.5 to 1,000 mg/l, varieties NN and Bel3 (FIG. 7)): 5 to 20 mg/L | dosis at which the maximum response of expression of the PR proteins is reached ([6]; varieties NN and Bel3): 500 mg/L | fluorescence under U.V. light at the level of infiltrated tissues ([7]; 200 mg/l, infiltrated tissues): a blue fluorescence under U.V. light is observed | symptoms of chlorosis as a function of concentration ([7]; 0.5, 5, 20, 50, 200 and 1,000 mg/l, varieties NN and Bel3): the more the symptoms of chlorosis are severe | symptoms of the infiltrated tissues ([7]; aqueous composition 200 mg/l infiltrated into leaf mesophyl, varieties NN and Bel3): present a depigmentation | dose at which first symptoms of fluorescence under UV light are obtained ([7]; concentration series 0.5 to 1,000 mg/l): 50 mg/L | stimulation of the OMT activity ([8]; varieties NN and Bel3, compared among C, H11-C1, H11-C2, H11-C3, H11-S, H16 (FIG. 4)): clearly better | stimulation of the OMT activity ([8]; variety Bel3, H11-S versus H11-C1 (FIG. 2)): clearly more intense | stimulation of the OMT activity ([8]; variety NN, H11-S versus H11-C1 (FIG. 2)): similar | increase of OMT activity as a function of the concentration ([8]; 0.5, 5, 50, 200 and 500 mg/l, varieties NN and Bel3 (FIGS. 8 and 9)): much faster | OMT activity relative to that obtained with H11-C2 ([8]; variety Bel3): about ten | OMT activity relative to that obtained with H11-C2 ([8]; variety NN): about four | factor by which the concentration can be lower than that of H11-C1, H11-C2 and H11-C3 for a comparable OMT result ([8]; conclusion from FIG. 4): eight | dosis at which the maximum response of OMT activity is reached ([8]; varieties NN and Bel3): 500 mg/L | factor by which the concentration can be lower for OMT stimulation equal to H11-C1 at 200 mg/l ([8]; variety Bel3, forecast from FIG. 2): 8 to 9 times
